Assays:
mTORC1 = mTORC1 (Homo sapiens (Human), UniProt P42345+P62942); test: mTORC1 inhibition, AlphaLISA of Phospho-p70 S6 kinase (p70S6K pT389) in PC-3 cells; type: cell-based; settings: inhibition of p70S6K pT389 levels
FKBP12 = FKBP12 (Homo sapiens (Human), UniProt P62942); test: SPR assay to determine binding affinity to FKBP12 (direct binding); settings: immobilized biotinylated avi-FKBP12
FKBP51 = FKBP51 (Homo sapiens (Human), UniProt Q13451); test: SPR assay to determine binding affinity to FKBP51 (direct binding); settings: immobilized biotinylated avi-FKBP51
FKBP51, sequence (Q13451 whole entry): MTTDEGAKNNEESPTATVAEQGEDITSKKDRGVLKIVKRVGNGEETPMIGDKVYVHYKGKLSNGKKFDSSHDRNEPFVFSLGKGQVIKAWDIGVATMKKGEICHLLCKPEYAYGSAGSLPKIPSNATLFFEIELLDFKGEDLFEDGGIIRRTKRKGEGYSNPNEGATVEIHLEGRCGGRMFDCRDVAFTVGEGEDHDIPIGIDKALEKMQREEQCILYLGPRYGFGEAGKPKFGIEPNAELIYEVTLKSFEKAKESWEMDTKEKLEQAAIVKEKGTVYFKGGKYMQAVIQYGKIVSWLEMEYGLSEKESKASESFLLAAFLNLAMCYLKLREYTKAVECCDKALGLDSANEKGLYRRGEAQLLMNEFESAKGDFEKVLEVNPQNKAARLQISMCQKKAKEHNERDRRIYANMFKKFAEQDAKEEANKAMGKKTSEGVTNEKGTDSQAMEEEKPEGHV
Summary of the method: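 Biotinylated avi-FKBP51 captured on streptavidin chip to about 2000 RU. Compounds injected at 0.5-1000 nM (8 points, 3-fold) for 120 s contact and 3600 s dissociation in 50 mM HEPES pH 7.5, 150 mM NaCl, 2 mM MgCl2, 1 mM DTT, 0.05% Tween-20, 1% DMSO.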

[1] = target: FKBP51 / FRB ternary complex (Homo sapiens (Human), UniProt P42345+Q13451); test: SPR assay to characterize ternary complex formation with FKBP51 (FRB binding to rapalog-saturated FKBP51); settings: FRB dilutions with 100 nM rapalog on immobilized FKBP51
Summary of the method: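 SPR with biotinylated avi-FKBP51 on streptavidin chip (~200 RU); FRB (0.00011-20 μM, 3-fold series) injected with 100 nM rapalog, A-B-A mode keeping FKBP saturated with rapalog.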

mTORC2 = mTORC2 (Homo sapiens (Human), UniProt P42345+P62942); test: mTORC2 inhibition, AlphaLISA of Phospho-AKT (pAKT pS473) in PC3 cells; type: cell-based
[2] = target: FKBP12 / FRB ternary complex (Homo sapiens (Human), UniProt P42345+P62942); test: SPR assay to characterize ternary complex formation with FKBP12 (FRB binding to rapalog-saturated FKBP12); settings: FRB dilutions with 100 nM rapalog on immobilized FKBP12
Summary of the method: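 Biotinylated avi-FKBP12 immobilized (~100 RU) on streptavidin chip; A-B-A injections kept FKBP12 saturated with 100 nM rapalog while FRB (0.00011–20 μM, 3-fold, 12 points) was injected 120 s.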

FKBP12, sequence (P62942 whole entry): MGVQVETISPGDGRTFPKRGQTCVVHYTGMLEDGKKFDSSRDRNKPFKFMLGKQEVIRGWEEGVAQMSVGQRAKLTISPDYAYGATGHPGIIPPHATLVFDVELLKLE

COC1CC(CC(C)C2CC(=O)C(C)C=C(C)C(O)C(OC)C(=O)C(C)CC(C)C=CC=CC=C(C)C(OCCC3COC3)CC3CCC(C)C(O)(O3)C(=O)C(=O)N3CCCCC3C(=O)O2)CCC1OCCO (stereo not drawn) [Compound 38]
IC50 (mTORC1): 0.1 to 0.8 nM | Kd (FKBP12): 0.3 to 1 nM | Kd (FKBP51): 10 to 100 nM | Kd [1]: > 800 nM | mTORC2 % inhibition at 1 uM (mTORC2): A (A ≤20% inhibition at 1 micro Molar (uM)) | Kd [2]: > 800 nM

COC1CC(CC(C)C2CC(=O)C(C)C=C(C)C(O)C(OC)C(=O)C(C)CC(C)C=CC=CC=C(C)C(OCC3CC3)CC3CCC(C)C(O)(O3)C(=O)C(=O)N3CCCCC3C(=O)O2)CCC1O (stereo not drawn) [Compound 39]
IC50 (mTORC1): 0.1 to 0.8 nM | Kd (FKBP12): 0.3 to 1 nM | Kd (FKBP51): > 100 nM | Kd [1]: > 800 nM | mTORC2 % inhibition at 1 uM (mTORC2): B (B>20% and less than 40% inhibition at 1 uM) | Kd [2]: 300 to 800 nM

COC1CC(CC(C)C2CC(=O)C(C)C=C(C)C(O)C(OC)C(=O)C(C)CC(C)C=CC=CC=C(C)C(OCC3CCCC3)CC3CCC(C)C(O)(O3)C(=O)C(=O)N3CCCCC3C(=O)O2)CCC1O (stereo not drawn) [Compound 40]
IC50 (mTORC1): 0.1 to 0.8 nM | Kd (FKBP12): > 1 nM | Kd (FKBP51): > 100 nM | Kd [1]: > 800 nM | mTORC2 % inhibition at 1 uM (mTORC2): A (A ≤20% inhibition at 1 micro Molar (uM)) | Kd [2]: 300 to 800 nM

COC1CC(CC(C)C2CC(=O)C(C)C=C(C)C(O)C(OC)C(=O)C(C)CC(C)C=CC=CC=C(C)C(OCC3CC(F)(F)C3)CC3CCC(C)C(O)(O3)C(=O)C(=O)N3CCCCC3C(=O)O2)CCC1O (stereo not drawn) [Compound 41]
IC50 (mTORC1): > 0.8 nM | Kd (FKBP12): 0.3 to 1 nM | Kd (FKBP51): > 100 nM | Kd [1]: > 800 nM | mTORC2 % inhibition at 1 uM (mTORC2): A (A ≤20% inhibition at 1 micro Molar (uM)) | Kd [2]: > 800 nM

COC1CC(CC(C)C2CC(=O)C(C)C=C(C)C(O)C(OC)C(=O)C(C)CC(C)C=CC=CC=C(C)C(OCC3CC3)CC3CCC(C)C(O)(O3)C(=O)C(=O)N3CCCCC3C(=O)O2)CCC1OCCCO (stereo not drawn) [Compound 42]
IC50 (mTORC1): > 0.8 nM | Kd (FKBP12): > 1 nM | Kd (FKBP51): > 100 nM | Kd [1]: > 800 nM | mTORC2 % inhibition at 1 uM (mTORC2): A (A ≤20% inhibition at 1 micro Molar (uM)) | Kd [2]: 300 to 800 nM

COC1CC(CC(C)C2CC(=O)C(C)C=C(C)C(O)C(OC)C(=O)C(C)CC(C)C=CC=CC=C(C)C(OCC3CC3)CC3CCC(C)C(O)(O3)C(=O)C(=O)N3CCCCC3C(=O)O2)CCC1OCCCO (stereo not drawn) [Compound 43]
IC50 (mTORC1): > 0.8 nM | Kd (FKBP12): > 1 nM | Kd (FKBP51): > 100 nM | Kd [1]: < 300 nM | mTORC2 % inhibition at 1 uM (mTORC2): C (C≥40% and less than 60% inhibition at 1 uM) | Kd [2]: < 300 nM

COC1CC(CC(C)C2CC(=O)C(C)C=C(C)C(O)C(OC)C(=O)C(C)CC(C)C=CC=CC=C(C)C(OCC3CCC3)CC3CCC(C)C(O)(O3)C(=O)C(=O)N3CCCCC3C(=O)O2)CCC1OCCCO (stereo not drawn) [Compound 44]
IC50 (mTORC1): 0.1 to 0.8 nM | Kd (FKBP12): > 1 nM | Kd (FKBP51): > 100 nM | Kd [1]: > 800 nM | mTORC2 % inhibition at 1 uM (mTORC2): C (C≥40% and less than 60% inhibition at 1 uM) | Kd [2]: < 300 nM

COC1CC(CC(C)C2CC(=O)C(C)C=C(C)C(O)C(OC)C(=O)C(C)CC(C)C=CC=CC=C(C)C(OCC3CCC3)CC3CCC(C)C(O)(O3)C(=O)C(=O)N3CCCCC3C(=O)O2)CCC1OCCO (stereo not drawn) [Compound 45]
IC50 (mTORC1): > 0.8 nM | Kd (FKBP12): > 1 nM | Kd (FKBP51): > 100 nM | Kd [1]: < 300 nM | mTORC2 % inhibition at 1 uM (mTORC2): B (B>20% and less than 40% inhibition at 1 uM) | Kd [2]: < 300 nM

COC1CC(CC(C)C2CC(=O)C(C)C=C(C)C(O)C(OC)C(=O)C(C)CC(C)C=CC=CC=C(C)C(OC3CC3)CC3CCC(C)C(O)(O3)C(=O)C(=O)N3CCCCC3C(=O)O2)CCC1OCCO (stereo not drawn) [Compound 46]
IC50 (mTORC1): 0.1 to 0.8 nM | Kd (FKBP12): > 1 nM | Kd (FKBP51): > 100 nM | Kd [1]: 300 to 800 nM | mTORC2 % inhibition at 1 uM (mTORC2): B (B>20% and less than 40% inhibition at 1 uM) | Kd [2]: 300 to 800 nM

COC1CC(CC(C)C2CC(=O)C(C)C=C(C)C(O)C(OC)C(=O)C(C)CC(C)C=CC=CC=C(C)C(OC3CC3)CC3CCC(C)C(O)(O3)C(=O)C(=O)N3CCCCC3C(=O)O2)CCC1OCCO (stereo not drawn) [Compound 47]
IC50 (mTORC1): > 0.8 nM | Kd (FKBP12): > 1 nM | Kd (FKBP51): > 100 nM | Kd [1]: > 800 nM | mTORC2 % inhibition at 1 uM (mTORC2): B (B>20% and less than 40% inhibition at 1 uM) | Kd [2]: < 300 nM

CCOC(=O)COC1CCC(CC(C)C2CC(=O)C(C)C=C(C)C(O)C(OC)C(=O)C(C)CC(C)C=CC=CC=C(C)C(OC3CC3)CC3CCC(C)C(O)(O3)C(=O)C(=O)N3CCCCC3C(=O)O2)CC1OC (stereo not drawn) [Compound 48]
IC50 (mTORC1): > 0.8 nM | Kd (FKBP12): > 1 nM | Kd (FKBP51): > 100 nM | Kd [1]: > 800 nM | mTORC2 % inhibition at 1 uM (mTORC2): A (A ≤20% inhibition at 1 micro Molar (uM)) | Kd [2]: 300 to 800 nM

CCOC(=O)COC1CCC(CC(C)C2CC(=O)C(C)C=C(C)C(O)C(OC)C(=O)C(C)CC(C)C=CC=CC=C(C)C(OCC3CCC3)CC3CCC(C)C(O)(O3)C(=O)C(=O)N3CCCCC3C(=O)O2)CC1OC (stereo not drawn) [Compound 49]
IC50 (mTORC1): > 0.8 nM | Kd (FKBP12): < 0.3 nM | Kd (FKBP51): > 100 nM | Kd [1]: > 800 nM | mTORC2 % inhibition at 1 uM (mTORC2): B (B>20% and less than 40% inhibition at 1 uM) | Kd [2]: 300 to 800 nM

CCOC(=O)COC1CCC(CC(C)C2CC(=O)C(C)C=C(C)C(O)C(OC)C(=O)C(C)CC(C)C=CC=CC=C(C)C(OCC3CC3)CC3CCC(C)C(O)(O3)C(=O)C(=O)N3CCCCC3C(=O)O2)CC1OC (stereo not drawn) [Compound 50]
IC50 (mTORC1): > 0.8 nM | Kd (FKBP12): > 1 nM | Kd (FKBP51): > 100 nM | Kd [1]: > 800 nM | mTORC2 % inhibition at 1 uM (mTORC2): B (B>20% and less than 40% inhibition at 1 uM) | Kd [2]: 300 to 800 nM

CCOC(=O)COC1CCC(CC(C)C2CC(=O)C(C)C=C(C)C(O)C(OC)C(=O)C(C)CC(C)C=CC=CC=C(C)C(OCC3CC3)CC3CCC(C)C(O)(O3)C(=O)C(=O)N3CCCCC3C(=O)O2)CC1OC (stereo not drawn) [Compound 51]
IC50 (mTORC1): > 0.8 nM | Kd (FKBP12): > 1 nM | Kd (FKBP51): > 100 nM | Kd [1]: > 800 nM | mTORC2 % inhibition at 1 uM (mTORC2): A (A ≤20% inhibition at 1 micro Molar (uM)) | Kd [2]: 300 to 800 nM

COC1CC(CC(C)C2CC(=O)C(C)C=C(C)C(O)C(OC)C(=O)C(C)CC(C)C=CC=CC=C(C)C(OC3CC3)CC3CCC(C)C(O)(O3)C(=O)C(=O)N3CCCCC3C(=O)O2)CCC1OCCCO (stereo not drawn) [Compound 52]
IC50 (mTORC1): 0.1 to 0.8 nM | Kd (FKBP12): 0.3 to 1 nM | Kd (FKBP51): > 100 nM | Kd [1]: > 800 nM | mTORC2 % inhibition at 1 uM (mTORC2): B (B>20% and less than 40% inhibition at 1 uM) | Kd [2]: < 300 nM

COC1CC(CC(C)C2CC(=O)C(C)C=C(C)C(O)C(OC)C(=O)C(C)CC(C)C=CC=CC=C(C)C(OC3CC3)CC3CCC(C)C(O)(O3)C(=O)C(=O)N3CCCCC3C(=O)O2)CCC1OCCCO (stereo not drawn) [Compound 53]
IC50 (mTORC1): 0.1 to 0.8 nM | Kd (FKBP12): 0.3 to 1 nM | Kd (FKBP51): > 100 nM | Kd [1]: > 800 nM | mTORC2 % inhibition at 1 uM (mTORC2): C (C≥40% and less than 60% inhibition at 1 uM) | Kd [2]: < 300 nM

COC1CC(CC(C)C2CC(=O)C(C)C=C(C)C(O)C(OC)C(=O)C(C)CC(C)C=CC=CC=C(C)C(OCC3CC3)CC3CCC(C)C(O)(O3)C(=O)C(=O)N3CCCCC3C(=O)O2)CCC1OCCO (stereo not drawn) [Compound 54]
IC50 (mTORC1): 0.1 to 0.8 nM | Kd (FKBP12): > 1 nM | Kd (FKBP51): > 100 nM | Kd [1]: > 800 nM | mTORC2 % inhibition at 1 uM (mTORC2): B (B>20% and less than 40% inhibition at 1 uM) | Kd [2]: < 300 nM

CO[C@@H]1C[C@H](C[C@@H](C)[C@@H]2CC(=O)[C@H](C)/C=C(\C)[C@H](O)[C@@H](OC)C(=O)[C@H](C)C[C@H](C)/C=C/C=C/C=C(\C)[C@@H](OCCC3COC3)C[C@@H]3CC[C@@H](C)[C@@](O)(O3)C(=O)C(=O)N3CCCC[C@H]3C(=O)O2)CC[C@H]1O [Compound 55]
IC50 (mTORC1): 0.1 to 0.8 nM | Kd (FKBP12): < 0.3 nM | Kd (FKBP51): > 100 nM | Kd [1]: > 800 nM | mTORC2 % inhibition at 1 uM (mTORC2): B (B>20% and less than 40% inhibition at 1 uM) | Kd [2]: 300 to 800 nM

Source: US11603377B2, “MTORC1 modulators and uses thereof” (Aeovian Pharmaceuticals, Inc., priority 2020, dated 2023)
